Assays:
S. pneumoniae D39V [1] = assay: fitness (endpoint OD595 vs no drug) (fraction); higher = more growth
In short: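 Plates with 384 wells were inoculated at OD595 0.01 using 30 µl of TSB, LB Lennox or CY, or 55 µl for S. pneumoniae. Incubation was at 37 °C, with OD595 measured every 30 min for 14 h. Fitness is the stationary-phase transition optical density over the robust mean of no-drug control wells, after first-reading background subtraction; it is capped at 1.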

B. subtilis 168 = assay: Bliss interaction score (quartile over a dose matrix) (fitness difference); higher = more antagonism (negative = synergy)
In short: (§1)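 Fitness was OD595 at entry into stationary phase divided by the plate's robust no-drug mean and capped at 1; single-drug fitness was inferred from combination data. The Bliss score is observed minus expected (product) fitness, summarised by quartiles over technical, biological and donor/recipient replicates.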

S. aureus DSM 20231 = assay: as above
In short: as §1

S. aureus Newman = assay: as above
In short: as §1

S. pneumoniae D39V [2] = assay: as above
In short: as §1
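Throughout, for Bliss interaction score (quartile over a dose matrix): first quartile when negative (synergy) and third quartile when positive (antagonism).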

CCC[C@@H]1C[C@@H](C(=O)N[C@@H]([C@H]2O[C@H](SC)[C@H](O)[C@@H](O)[C@H]2O)[C@H](C)Cl)N(C)C1 [Clindamycin] + Clc1ccc(COC(Cn2ccnc2)c2ccc(Cl)cc2Cl)c(Cl)c1 [Miconazole]
S. pneumoniae D39V [1]
Settings | fitness
first compound 0.0125 µg/mL, partner 1.25 µg/mL | 0.688
first compound 0.0125 µg/mL, partner 2.5 µg/mL | 0.758
first compound 0.0125 µg/mL, partner 5 µg/mL | 0.761
first compound 0.015 µg/mL, partner 1.073 µg/mL | 0.944
first compound 0.015 µg/mL, partner 2.145 µg/mL | 0.945
first compound 0.015 µg/mL, partner 4.29 µg/mL | 0.906
first compound 0.025 µg/mL, partner 1.25 µg/mL | 0.433
first compound 0.025 µg/mL, partner 2.5 µg/mL | 0.485
first compound 0.025 µg/mL, partner 5 µg/mL | 0.444
first compound 0.03 µg/mL, partner 1.073 µg/mL | 0.772
first compound 0.03 µg/mL, partner 2.145 µg/mL | 0.777
first compound 0.03 µg/mL, partner 4.29 µg/mL | 0.665
first compound 0.05 µg/mL, partner 1.25 µg/mL | 0.213
first compound 0.05 µg/mL, partner 2.5 µg/mL | 0.235
first compound 0.05 µg/mL, partner 5 µg/mL | 0.252
first compound 0.06 µg/mL, partner 4.29 µg/mL | 0.33

Settings | Bliss interaction score
B. subtilis 168 | 0.0322
S. aureus DSM 20231 | -0.0342
S. aureus Newman | -0.0596
S. pneumoniae D39V [2] | -0.0991

C[C@@H](O)[C@H]1C(=O)N2C(C(=O)O)=C(SCCNC=N)C[C@H]12 [Imipenem] + CCC[C@@H]1C[C@@H](C(=O)N[C@@H]([C@H]2O[C@H](SC)[C@H](O)[C@@H](O)[C@H]2O)[C@@H](C)O)N(C)C1 [Lincomycin]
fitness, S. pneumoniae D39V [1]
Settings | first compound 0.005 µg/mL | first compound 0.0065 µg/mL | first compound 0.01 µg/mL | first compound 0.013 µg/mL | first compound 0.02 µg/mL | first compound 0.026 µg/mL
partner 0.2 µg/mL | – | 0.68 | – | 0.738 | – | 0.693
partner 0.215 µg/mL | 0.829 | – | 0.846 | – | 0.814 | –
partner 0.4 µg/mL | – | 0.563 | – | 0.626 | – | 0.596
partner 0.43 µg/mL | 0.719 | – | 0.722 | – | 0.71 | –
partner 0.8 µg/mL | – | 0.0187 | – | 0.0703 | – | 0.0319
partner 0.86 µg/mL | 0.474 | – | 0.451 | – | 0.453 | –

Settings | Bliss interaction score
B. subtilis 168 | 0.163
S. aureus DSM 20231 | 0.09
S. aureus Newman | 0.0416
S. pneumoniae D39V [2] | -0.0603

C[C@@H](O)[C@H]1C(=O)N2C(C(=O)O)=C(SCCNC=N)C[C@H]12 [Imipenem] + C/C(=C\C(=O)OCCCCCCCCC(=O)O)C[C@@H]1OC[C@H](C[C@@H]2O[C@H]2[C@@H](C)[C@H](C)O)[C@@H](O)[C@H]1O [Pseudomonic acid]
fitness, S. pneumoniae D39V [1]
Settings | first compound 0.005 µg/mL | first compound 0.0065 µg/mL | first compound 0.01 µg/mL | first compound 0.013 µg/mL | first compound 0.02 µg/mL | first compound 0.026 µg/mL
partner 0.03 µg/mL | 0.897 | 0.799 | 0.896 | 0.889 | 0.917 | 0.89
partner 0.06 µg/mL | 0.772 | – | 0.799 | 0.7 | 0.77 | 0.688
partner 0.12 µg/mL | 0.578 | 0.439 | 0.583 | 0.479 | 0.583 | 0.504

Settings | Bliss interaction score
B. subtilis 168 | 0.12
S. aureus DSM 20231 | 0.0093
S. aureus Newman | 0.0109
S. pneumoniae D39V [2] | -0.146

CC[C@H]1OC(=O)[C@H](C)[C@@H](O[C@H]2C[C@@](C)(OC)[C@@H](O)[C@H](C)O2)[C@H](C)[C@@H](O[C@@H]2O[C@H](C)C[C@H](N(C)C)[C@H]2O)[C@](C)(OC)C[C@@H](C)C(=O)[C@H](C)[C@@H](O)[C@]1(C)O [Clarithromycin] + COc1ccc(C[C@H](N)C(=O)N[C@H]2[C@@H](O)[C@H](n3cnc4c(N(C)C)ncnc43)O[C@@H]2CO)cc1 [Puromycin]
fitness, S. pneumoniae D39V [1], one replicate
Settings | first compound 0.007812 µg/mL | first compound 0.01562 µg/mL | first compound 0.03125 µg/mL | first compound 0.0625 µg/mL | first compound 0.125 µg/mL | first compound 0.25 µg/mL
partner 1 µg/mL | 0.947 | 0.867 | 0.676 | 0.419 | 0.138 | 0.112
partner 2 µg/mL | 0.839 | 0.805 | 0.612 | 0.504 | 0.192 | 0.0762
partner 4 µg/mL | 0.667 | 0.617 | 0.467 | 0.255 | 0.15 | 0.134

fitness, S. pneumoniae D39V [1]
Settings | first compound 0.07 µg/mL | first compound 0.14 µg/mL | first compound 0.28 µg/mL
partner 1 µg/mL | 0.131 | 0.0877 | 0.11
partner 2 µg/mL | 0.125 | 0.096 | 0.0799
partner 4 µg/mL | 0.12 | 0.122 | 0.0797

Settings | Bliss interaction score
B. subtilis 168 | 0.0559
S. aureus DSM 20231 | 0.0616
S. aureus Newman | -0.0662
S. pneumoniae D39V [2] | -0.0827

C[C@@H](O)[C@H]1C(=O)N2C(C(=O)O)=C(SCCNC=N)C[C@H]12 [Imipenem] + C[C@H]1COc2c(N3CCN(C)CC3)c(F)cc3c(=O)c(C(=O)O)cn1c23 [Levofloxacin]
fitness, S. pneumoniae D39V [1]
Settings | first compound 0.005 µg/mL | first compound 0.0065 µg/mL | first compound 0.01 µg/mL | first compound 0.013 µg/mL | first compound 0.02 µg/mL | first compound 0.026 µg/mL
partner 0.1725 µg/mL | 0.958 | – | 0.948 | – | 0.963 | –
partner 0.2 µg/mL | – | 0.886 | – | 0.885 | – | 0.871
partner 0.345 µg/mL | 0.894 | – | 0.877 | – | 0.826 | –
partner 0.4 µg/mL | – | 0.77 | – | 0.778 | – | 0.713
partner 0.69 µg/mL | 0.571 | – | 0.615 | – | 0.576 | –
partner 0.8 µg/mL | – | 0.227 | – | 0.361 | – | 0.329

Settings | Bliss interaction score
B. subtilis 168 | -0.17
S. aureus DSM 20231 | 0.025
S. aureus Newman | 0.0287
S. pneumoniae D39V [2] | -0.0377

CCC[C@@H]1C[C@@H](C(=O)N[C@@H]([C@H]2O[C@H](SC)[C@H](O)[C@@H](O)[C@H]2O)[C@H](C)Cl)N(C)C1 [Clindamycin] + C[C@@H](O)[C@H]1C(=O)N2C(C(=O)O)=C(SCCNC=N)C[C@H]12 [Imipenem]
fitness, S. pneumoniae D39V [1]
Settings | first compound 0.0125 µg/mL | first compound 0.015 µg/mL | first compound 0.025 µg/mL | first compound 0.03 µg/mL | first compound 0.05 µg/mL | first compound 0.06 µg/mL
partner 0.005 µg/mL | 0.753 | – | 0.5 | – | 0.213 | –
partner 0.0065 µg/mL | – | 0.843 | – | 0.628 | – | 0.176
partner 0.01 µg/mL | 0.763 | – | 0.486 | – | 0.202 | –
partner 0.013 µg/mL | – | 0.877 | – | 0.744 | – | 0.46
partner 0.02 µg/mL | 0.758 | – | 0.468 | – | 0.19 | –
partner 0.026 µg/mL | – | 0.824 | – | 0.644 | – | 0.299

Settings | Bliss interaction score
B. subtilis 168 | 0.159
S. aureus DSM 20231 | 0.0276
S. aureus Newman | -0.0198
S. pneumoniae D39V [2] | -0.0804

Reference: the supplement of paper PMC10627819
